Reference: US11548893B2 (priority 2017, dated 2023)
Like-named read-outs stand apart in the source and are kept apart here.

What was measured:
[1] = in vitro; settings: mouse
[2] = molecular target: Cyp-p450 1A2 (Homo sapiens, UniProt P05177)
[3] = in vivo; settings: male, CD-1, mouse
[4] = molecular target: Cyp-p450 2B6 (Homo sapiens, UniProt P20813)
[5] = physchem; settings: pH 7, kinetic from dmso stock
[6] = pH 7
[7] = in vitro; settings: human, Caco-2
[8] = test system: VSV (native full-length glycoprotein); assay: microbe, parasite or virus in culture; format: cell-based; settings: Vesicular stomatitis virus, Vero, read-out: EC50 Pseudotype Assays VSV
[9] = test system: SUDV (glycoprotein, VSV pseudotype); assay: microbe, parasite or virus in culture; format: cell-based, Sudan ebolavirus; settings: Vesicular stomatitis virus, Vero, 24 h, read-out: EC50 Pseudotype Assays SUDV
[10] = test system: EBOV (mucin-deleted glycoprotein, VSV pseudotype); assay: microbe, parasite or virus in culture; format: cell-based, Zaire ebolavirus; settings: Zaire ebolavirus, Vero, 24 h, read-out: EC50 Pseudotype Assays EBOV
[11] = in vitro; settings: African green monkey, Cytotox CC50
[12] = molecular target: Cyp-p450 2C9 (Homo sapiens, UniProt P11712)
[13] = in vitro; settings: human
[14] = molecular target: hERG ion channel (Homo sapiens, UniProt Q12809); assay: biochemical
[15] = molecular target: Cyp-p450 2C19 (Homo sapiens, UniProt P33261)
[16] = mouse, in vivo
[17] = test system: MARV (full-length glycoprotein, VSV pseudotype); assay: microbe, parasite or virus in culture; format: cell-based, Marburg marburgvirus; settings: Vesicular stomatitis virus, Vero, 24 h, read-out: EC50 Pseudotype Assays MARV
[18] = in vitro; settings: African green monkey
[19] = molecular target: Cyp-p450 2D6 (Homo sapiens, UniProt P10635)
[20] = molecular target: P-gp (Homo sapiens, UniProt P08183)
[21] = test system: BDBV (mucin-deleted glycoprotein, VSV pseudotype); assay: microbe, parasite or virus in culture; format: cell-based, Bundibugyo ebolavirus; settings: Vesicular stomatitis virus, Vero, 24 h, read-out: EC50 Pseudotype Assays BDBV
[22] = molecular target: Cyp-p450 3A4 (Homo sapiens, UniProt P08684)
[23] = test system: EBOV (Mayinga); assay: microbe, parasite or virus in culture; format: cell-based, Ebola virus; settings: for EC50: Zaire ebolavirus, Vero
[24] = test system: EBOV_FL: full-length Ebola Zaire GP (VSV pseudotype); assay: microbe, parasite or virus in culture; format: cell-based, Zaire ebolavirus; settings: Zaire ebolavirus, Vero, 24 h, read-out: EC50 Pseudotype Assays EBOV_FL
[25] = test system: Ebola Zaire
[26] = test system: Ebola Zaire; assay: microbe, parasite or virus in culture; settings: Zaire ebolavirus, read-out: Ebola Zaire EC50
[27] = microsomes, 1 h
[28] = microsomes, 1 h; remark: listed apart in the source
[29] = test system: Ebola Zaire; assay: microbe, parasite or virus in culture; settings: Zaire ebolavirus, HeLa, read-out: Ebola Zaire EC50
[30] = microsomes, 1 h; remark: listed apart in the source
[31] = microsomes, 1 h; remark: listed apart in the source
[32] = test system: Ebola Zaire; assay: microbe, parasite or virus in culture; settings: Zaire ebolavirus, read-out: Ebola Zaire EC90
[33] = test system: Sudan Gulu; assay: organism not typed; settings: HeLa, read-out: Sudan Gulu EC50
[34] = test system: Sudan Gulu; assay: organism not typed; settings: read-out: Sudan Gulu EC50
[35] = test system: Ebola Zaire; remark: listed apart in the source
[36] = molecular target: Cyp-p450 2C8 (Homo sapiens, UniProt P10632)
[37] = test system: Sudan Gulu; assay: organism not typed; settings: read-out: Sudan Gulu EC50; remark: listed apart in the source
[38] = test system: Sudan Gulu
[39] = test system: native EBOV virus; settings: read-out: published EC50 against native EBOV virus; cited from earlier work
[40] = human, in vivo; cited from earlier work
[41] = in vivo, po, 150 mg/kg; cited from earlier work
[42] = test system: Ebola virus infection; settings: human, in vivo; cited from earlier work
[43] = CYP Inhibition 3A4 (Testosterone)

Sequence of P-gp (P08183 whole entry): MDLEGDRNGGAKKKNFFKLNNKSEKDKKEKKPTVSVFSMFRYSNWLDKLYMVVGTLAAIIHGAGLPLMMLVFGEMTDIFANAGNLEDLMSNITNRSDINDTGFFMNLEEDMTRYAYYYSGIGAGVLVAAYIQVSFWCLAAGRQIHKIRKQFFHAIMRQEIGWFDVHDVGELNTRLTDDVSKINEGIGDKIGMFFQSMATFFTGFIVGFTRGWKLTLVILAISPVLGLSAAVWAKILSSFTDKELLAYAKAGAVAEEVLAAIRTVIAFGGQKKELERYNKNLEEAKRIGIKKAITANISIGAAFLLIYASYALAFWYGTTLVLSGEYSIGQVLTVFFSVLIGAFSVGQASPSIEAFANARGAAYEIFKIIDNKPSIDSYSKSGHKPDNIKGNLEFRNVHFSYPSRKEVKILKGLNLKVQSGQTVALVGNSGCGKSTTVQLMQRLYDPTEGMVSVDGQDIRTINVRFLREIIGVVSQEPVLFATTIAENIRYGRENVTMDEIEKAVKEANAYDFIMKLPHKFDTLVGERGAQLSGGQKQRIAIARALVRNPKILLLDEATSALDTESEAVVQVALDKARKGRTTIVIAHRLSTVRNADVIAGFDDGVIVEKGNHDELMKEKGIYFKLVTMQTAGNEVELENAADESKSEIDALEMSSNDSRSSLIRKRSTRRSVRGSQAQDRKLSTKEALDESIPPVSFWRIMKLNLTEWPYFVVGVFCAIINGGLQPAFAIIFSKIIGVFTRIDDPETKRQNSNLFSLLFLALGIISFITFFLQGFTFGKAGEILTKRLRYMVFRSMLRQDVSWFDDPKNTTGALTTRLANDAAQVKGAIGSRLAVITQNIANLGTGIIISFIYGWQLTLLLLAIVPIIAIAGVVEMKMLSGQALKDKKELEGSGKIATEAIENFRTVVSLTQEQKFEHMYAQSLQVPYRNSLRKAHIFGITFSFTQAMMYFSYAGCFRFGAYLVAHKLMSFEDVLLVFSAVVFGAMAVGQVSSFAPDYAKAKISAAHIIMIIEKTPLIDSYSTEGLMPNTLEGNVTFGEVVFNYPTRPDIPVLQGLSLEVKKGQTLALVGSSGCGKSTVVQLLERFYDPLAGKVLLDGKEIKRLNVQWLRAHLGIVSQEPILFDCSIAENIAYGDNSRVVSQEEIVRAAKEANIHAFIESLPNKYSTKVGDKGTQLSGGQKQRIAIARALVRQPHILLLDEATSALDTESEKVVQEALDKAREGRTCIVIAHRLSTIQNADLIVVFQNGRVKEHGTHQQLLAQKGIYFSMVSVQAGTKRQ
Sequence of Cyp-p450 3A4 (P08684 whole entry): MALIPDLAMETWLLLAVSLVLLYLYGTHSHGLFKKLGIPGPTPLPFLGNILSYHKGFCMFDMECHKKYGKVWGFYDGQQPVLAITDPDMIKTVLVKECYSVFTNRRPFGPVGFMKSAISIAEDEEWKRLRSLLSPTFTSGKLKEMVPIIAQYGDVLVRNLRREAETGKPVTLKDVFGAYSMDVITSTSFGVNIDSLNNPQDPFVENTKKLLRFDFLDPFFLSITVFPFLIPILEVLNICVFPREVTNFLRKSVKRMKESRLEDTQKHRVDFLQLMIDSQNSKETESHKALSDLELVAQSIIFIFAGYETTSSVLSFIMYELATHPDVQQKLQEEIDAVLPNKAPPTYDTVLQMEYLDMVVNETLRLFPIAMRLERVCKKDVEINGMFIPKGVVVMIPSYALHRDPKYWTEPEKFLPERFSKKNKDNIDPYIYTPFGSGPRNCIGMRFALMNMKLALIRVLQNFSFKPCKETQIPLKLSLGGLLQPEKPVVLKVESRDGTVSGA
Sequence of Cyp-p450 2D6 (P10635 whole entry): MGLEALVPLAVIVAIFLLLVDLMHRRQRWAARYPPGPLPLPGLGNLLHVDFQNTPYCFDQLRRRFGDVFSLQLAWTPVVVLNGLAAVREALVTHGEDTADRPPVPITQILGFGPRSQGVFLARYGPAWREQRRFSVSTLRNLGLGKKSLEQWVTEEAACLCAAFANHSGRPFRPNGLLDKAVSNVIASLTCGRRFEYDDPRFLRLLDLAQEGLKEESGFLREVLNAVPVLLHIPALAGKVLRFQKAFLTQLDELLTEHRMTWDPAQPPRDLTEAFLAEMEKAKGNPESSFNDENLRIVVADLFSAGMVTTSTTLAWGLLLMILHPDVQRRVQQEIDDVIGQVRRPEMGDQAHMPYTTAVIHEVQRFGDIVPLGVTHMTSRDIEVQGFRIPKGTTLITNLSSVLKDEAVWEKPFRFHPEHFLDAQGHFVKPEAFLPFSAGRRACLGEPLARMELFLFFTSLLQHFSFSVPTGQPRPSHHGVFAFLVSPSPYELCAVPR
Sequence of Cyp-p450 2C9 (P11712 whole entry): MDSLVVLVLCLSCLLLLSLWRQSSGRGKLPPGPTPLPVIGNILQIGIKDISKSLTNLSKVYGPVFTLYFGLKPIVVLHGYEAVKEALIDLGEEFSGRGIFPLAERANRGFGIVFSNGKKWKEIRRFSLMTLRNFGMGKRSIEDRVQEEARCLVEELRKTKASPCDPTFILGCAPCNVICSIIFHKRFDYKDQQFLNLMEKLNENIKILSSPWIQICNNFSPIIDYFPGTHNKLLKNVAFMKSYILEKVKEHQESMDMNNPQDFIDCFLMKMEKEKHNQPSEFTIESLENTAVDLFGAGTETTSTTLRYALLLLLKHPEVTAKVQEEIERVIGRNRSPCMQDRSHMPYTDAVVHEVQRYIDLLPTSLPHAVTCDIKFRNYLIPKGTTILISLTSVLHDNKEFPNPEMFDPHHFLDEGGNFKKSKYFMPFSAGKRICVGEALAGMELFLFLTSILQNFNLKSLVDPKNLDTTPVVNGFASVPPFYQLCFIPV
Sequence of Cyp-p450 2B6 (P20813 whole entry): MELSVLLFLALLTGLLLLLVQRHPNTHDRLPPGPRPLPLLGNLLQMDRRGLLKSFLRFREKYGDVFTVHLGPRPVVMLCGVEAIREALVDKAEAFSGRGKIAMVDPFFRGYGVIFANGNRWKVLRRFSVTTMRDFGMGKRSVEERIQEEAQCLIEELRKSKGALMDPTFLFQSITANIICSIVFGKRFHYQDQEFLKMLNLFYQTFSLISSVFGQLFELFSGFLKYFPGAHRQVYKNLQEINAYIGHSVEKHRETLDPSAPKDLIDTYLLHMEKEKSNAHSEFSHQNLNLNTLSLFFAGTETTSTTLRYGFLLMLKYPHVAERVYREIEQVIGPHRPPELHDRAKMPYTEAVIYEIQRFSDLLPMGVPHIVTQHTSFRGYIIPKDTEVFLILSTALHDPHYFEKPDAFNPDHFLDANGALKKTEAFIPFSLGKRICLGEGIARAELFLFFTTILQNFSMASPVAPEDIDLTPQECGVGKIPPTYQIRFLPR
Sequence of Cyp-p450 1A2 (P05177 whole entry): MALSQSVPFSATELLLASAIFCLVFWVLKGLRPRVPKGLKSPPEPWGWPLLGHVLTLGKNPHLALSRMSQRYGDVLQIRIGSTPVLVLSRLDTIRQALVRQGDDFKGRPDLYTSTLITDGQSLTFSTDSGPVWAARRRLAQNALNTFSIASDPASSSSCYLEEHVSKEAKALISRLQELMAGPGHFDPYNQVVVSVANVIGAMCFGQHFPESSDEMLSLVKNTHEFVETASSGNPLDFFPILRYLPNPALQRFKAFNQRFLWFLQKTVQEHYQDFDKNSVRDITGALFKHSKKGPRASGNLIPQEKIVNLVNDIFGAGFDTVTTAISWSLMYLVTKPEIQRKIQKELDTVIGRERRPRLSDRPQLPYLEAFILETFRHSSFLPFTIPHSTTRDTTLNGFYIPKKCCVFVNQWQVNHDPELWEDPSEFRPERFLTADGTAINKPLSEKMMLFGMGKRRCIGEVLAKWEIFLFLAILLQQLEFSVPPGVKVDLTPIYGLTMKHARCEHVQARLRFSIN
Sequence of Cyp-p450 2C19 (P33261 whole entry): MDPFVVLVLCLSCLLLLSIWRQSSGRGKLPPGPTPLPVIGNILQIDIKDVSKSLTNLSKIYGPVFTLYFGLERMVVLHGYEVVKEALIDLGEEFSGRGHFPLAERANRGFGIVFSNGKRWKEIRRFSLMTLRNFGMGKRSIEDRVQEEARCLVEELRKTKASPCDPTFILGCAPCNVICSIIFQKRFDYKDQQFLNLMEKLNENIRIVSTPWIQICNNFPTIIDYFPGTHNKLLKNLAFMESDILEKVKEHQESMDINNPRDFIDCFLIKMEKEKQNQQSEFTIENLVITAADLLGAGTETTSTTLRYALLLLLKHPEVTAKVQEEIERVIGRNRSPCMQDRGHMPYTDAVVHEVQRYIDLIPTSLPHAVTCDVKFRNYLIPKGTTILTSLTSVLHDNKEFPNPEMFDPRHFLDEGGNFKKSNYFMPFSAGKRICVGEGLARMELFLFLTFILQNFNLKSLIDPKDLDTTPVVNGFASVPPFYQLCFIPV
Sequence of Cyp-p450 2C8 (P10632 whole entry): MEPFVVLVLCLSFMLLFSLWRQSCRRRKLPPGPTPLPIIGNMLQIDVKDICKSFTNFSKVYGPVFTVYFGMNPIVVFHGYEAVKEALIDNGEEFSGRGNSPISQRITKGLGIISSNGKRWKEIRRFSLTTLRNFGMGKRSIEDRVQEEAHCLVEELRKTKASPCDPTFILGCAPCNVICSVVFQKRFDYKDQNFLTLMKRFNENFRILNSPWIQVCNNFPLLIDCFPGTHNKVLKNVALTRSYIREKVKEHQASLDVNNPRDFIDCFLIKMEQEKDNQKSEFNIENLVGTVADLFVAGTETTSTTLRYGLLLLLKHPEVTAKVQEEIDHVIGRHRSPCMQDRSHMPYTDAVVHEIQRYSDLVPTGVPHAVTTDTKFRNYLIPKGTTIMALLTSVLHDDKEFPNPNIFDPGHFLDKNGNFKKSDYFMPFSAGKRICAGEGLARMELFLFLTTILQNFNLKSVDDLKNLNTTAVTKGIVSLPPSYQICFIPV

CC12CC3CC(C(=O)N[C@H]4CC[C@@H](N)CC4)(C1)CC(c1ccccc1)(C3)C2.Cl (mixture of isomers) [Example A2]
fraction unbound [1]: 0.014
IC50 [2]: > 100 µM
Vd [3]: 14 L/kg
bioavailability [3]: 72%
half-life ([3]; 10 mg/kg): 7 h
AUC(0-inf) ([3]; iv, 1 mg/kg): 561 ng·h/mL
AUC(0-t) ([3]; iv, 1 mg/kg): 539 ± 23 ng·h/mL
Cmax ([3]; iv, 1 mg/kg): 129 ± 40 ng/mL
Tmax ([3]; iv, 1 mg/kg): 0.083 h
Vd ([3]; iv, 1 mg/kg): 13.9 L/kg
clearance ([3]; iv, 1 mg/kg): 29.7 mL/min/kg
half-life ([3]; iv, 1 mg/kg): 5.4 h
AUC(0-inf) ([3]; po, 10 mg/kg): 4040 ng·h/mL
AUC(0-t) ([3]; po, 10 mg/kg): 3590 ± 576 ng·h/mL
Cmax ([3]; po, 10 mg/kg): 239 ± 46 ng/mL
Tmax ([3]; po, 10 mg/kg): 6 h
half-life ([3]; po, 10 mg/kg): 7.1 h
IC50 [4]: > 100 µM
solubility [5]: > 500 µM
Turbidimetric solubility [6]: >500 µM
Papp A→B [7]: 3.61 ×10⁻⁶ cm/s
Papp B→A [7]: 15.6 ×10⁻⁶ cm/s
efflux ratio [7]: 4.32
EC50 [8]: > 10 µM
EC50 [9]: 0.27 µM
EC50 [10]: 0.02 µM
CC50 [11]: 10.1 µM
IC50 [12]: > 100 µM
fraction unbound [13]: 0.025
IC50 [14]: > 10 µM
IC50 [15]: > 100 µM
clearance [16]: less than hepatic blood flow
EC50 [17]: 3.1 µM
CC50 [18]: 66 µM
IC50 [19]: > 100 µM
P-gp substrate ID Caco-2 Permeability (+Verapamil) Paap Mean A > B [20]: 8.47 10^−6 cm s^−1
P-gp substrate ID Caco-2 Permeability (+Verapamil) Paap Mean B > A [20]: 7.45 10^−6 cm s^−1
EC50 [21]: 0.09 µM
IC50 ([22]; CYP Inhibition 3A4 (Midazolam)): > 100 µM
IC50 [22, 43]: 28 µM
SI50 (CC50/EC50) [23]: 153
EC50 [23]: 0.43 µM
EC50 [24]: 0.024 µM

CCC12CC3CC(C(=O)N4CCC(N)CC4)(C1)CC(c1ccccc1)(C3)C2 (racemic) [Example A32]
Ebola Zaire SI (CC50/EC50) [25]: 64
EC50 [9]: 0.215 µM
EC50 [10]: 0.042 µM
CC50 [11]: 6 µM
EC50 [17]: 7.6 µM
EC50 [26]: 1.33 µM
EC50 [21]: 0.09 µM
EC50 [24]: 0.065 µM

C[C@]12CC3CC(C(=O)N[C@H]4CC[C@@H](N)CC4)(C1)C[C@@](c1ccccc1)(C3)C2.Cl [Example B2]
Liver Microsome Stability % Remaining after 60 Minutes, Human [27]: 100%
fraction unbound [1]: 0.011
Liver Microsome Stability % Remaining after 60 Minutes, Guinea Pig [28]: 100%
IC50 [2]: > 100 µM
IC50 [4]: > 100 µM
EC50 [29]: 0.44 µM
Liver Microsome Stability % Remaining after 60 Minutes, Mouse [30]: 71%
solubility [5]: > 500 µM
Turbidimetric solubility [6]: >500 µM
Liver Microsome Stability % Remaining after 60 Minutes, Monkey [31]: 85%
Papp A→B [7]: 3.07 ×10⁻⁶ cm/s
Papp B→A [7]: 7.86 ×10⁻⁶ cm/s
efflux ratio [7]: 2.71
EC50 [9]: 0.277 µM
EC50 [10]: 0.015 µM
CC50 [11]: 19.1 µM
IC50 [12]: > 100 µM
fraction unbound [13]: 0.039
IC50 [15]: 51 µM
EC90 [32]: 0.8 µM
EC50 [33]: 0.18 µM
EC50 [17]: 6.45 µM
CC50 [18]: 67.6 µM
EC50 [34]: 1.1 µM
IC50 [19]: > 100 µM
P-gp substrate ID Caco-2 Permeability (+Verapamil) Paap Mean A > B [20]: 6.19 10^−6 cm s^−1
P-gp substrate ID Caco-2 Permeability (+Verapamil) Paap Mean B > A [20]: 6.83 10^−6 cm s^−1
EC50 [26]: 0.24 µM
Ebola Zaire SI (CC50/EC90) [35]: 72.5
EC50 [21]: 0.067 µM
IC50 ([22]; CYP Inhibition 3A4 (Midazolam)): > 100 µM
IC50 [22, 43]: 88 µM
SI50 (CC50/EC50) [23]: 282
EC50 [23]: 0.24 µM
EC50 [24]: 0.01 µM
IC50 [36]: > 100 µM

C[C@]12CC3CC(C(=O)N4CCC(N)CC4)(C1)C[C@@](c1ccccc1)(C3)C2 [Example B7]
Liver Microsome Stability % Remaining after 60 Minutes, Human [27]: 86%
Liver Microsome Stability % Remaining after 60 Minutes, Guinea Pig [28]: 72%
EC50 [29]: 1.9 µM
Liver Microsome Stability % Remaining after 60 Minutes, Mouse [30]: 77%
Liver Microsome Stability % Remaining after 60 Minutes, Monkey [31]: 53%
EC50 [9]: 0.116 µM
EC50 [10]: 0.045 µM
CC50 [11]: 31 µM
EC50 [33]: 0.17 µM
EC50 [17]: 8 µM
EC50 [26]: 0.88 µM
EC50 [21]: 0.072 µM
EC50 [37]: 0.36 µM
EC50 [24]: 0.04 µM

CC1(C)CN(C(=O)C23CC4C[C@@](C)(C2)C[C@](c2ccccc2)(C4)C3)CCC1N (some centres unmarked) [Example B8]
Liver Microsome Stability % Remaining after 60 Minutes, Human [27]: 76%
Liver Microsome Stability % Remaining after 60 Minutes, Guinea Pig [28]: 56%
Liver Microsome Stability % Remaining after 60 Minutes, Mouse [30]: 47%
Liver Microsome Stability % Remaining after 60 Minutes, Monkey [31]: 30%
Sudan Gulu SI (CC50/EC50) [38]: 128
EC50 [9]: 0.058 µM
EC50 [10]: 0.012 µM
CC50 [11]: 12.4 µM
EC50 [34]: 0.13 µM
EC50 [21]: 0.084 µM
EC50 [24]: 0.05 µM

NC(=O)c1nc(F)c[nH]c1=O [favipiravir, reference compound]
EC50 [39]: 67 µM
CC50 [18]: > 1000 µM
half-life in humans [40]: 1 to 4 h
SI50 (CC50/EC50) [23]: >59
EC50 [23]: 17 µM
half-life [41]: 1.8 h
drop in viral load [42]: 3-4 log
